Key:
coronavirus (SARS) = conditions: cited from earlier work
[1] = system: Four human tumor cell lines; conditions: cited from earlier work
[2] = system: Mouse Hepatitis Virus Type-3 (MHV-3); conditions: in vivo; cited from earlier work
[3] = system: human coronavirus strain OC-43; type: cell-based
[4] = system: human coronavirus strain OC-43; type: cell-based; remark: listed apart in the source
[5] = system: Mouse Hepatitis Virus Type-3 (MHV-3); conditions: in vivo; cited from earlier work; remark: listed apart in the source

Compound | Effect on the SARS coronavirus (coronavirus (SARS)) | Antiproliferative interaction with interferons [1] | Survival relative to untreated mice [2] | Inhibition of virus in neutral red assay [3] | Inhibition of virus in viral cytopathic inhibition assay [4] | Virus clearance and development of chronic hepatitis [5]
NC(=O)c1ncn([C@@H]2O[C@H](CO)[C@@H](O)[C@H]2O)n1 [ribavirin] | no effect | – | – | – | – | –
rIn.r(C12U)n | – | worked synergistically with all interferons in all cell lines studied | survived up to four times longer | inhibit | inhibit | cleared the virus quickly and did not develop chronic hepatitis
